Results as given in BigSolDB 2.1.

Settings: in water

O=C(O)c1cc(O)c(O)c(O)c1
Settings | solubility (mole fraction)
298 K | 0.00158
303 K | 0.00176
308 K | 0.00203
313 K | 0.00248
318 K | 0.00311
323 K | 0.00433
328 K | 0.00557
333 K | 0.00712
338 K | 0.00898
343 K | 0.0126
